Data published in EP4574151A1, “INHIBITORS OF G12V-MUTATED RAS PROTEIN TO TREAT CANCER” (Personather Spolka Z Ograniczona Odpowiedzialnoscia, priority 2023, dated 2025).
Entries after “also recorded” stand apart in the source; their conditions may differ.

Assays:
NCI-H1975 = test: Toxicity against cancer cells expressing wild type RAS; type: cell-based; settings: summary statement
Method: The results of in vitro analyses were presented in the examples. Commercially available cancer cell lines were used for the studies, including SW480, SW620, and COR-L23, showing endogenous expression of KRASG12V, as well as a cell line with exogenously introduced KRASG12V mutation (using methods of genetic engineering) - the DK-MGEGFRvIIIKRASG12V line. Additionally, the cancer cell line NCI- H1975, characterized by the expression of wild type RASWT proteins, was also analyzed.

SW480 cell line = test: Western Blot analysis of the RAS-controlled signal transduction pathway in a cancer cell line expressing KRASG12V; type: cell-based; settings: SW480 cell line with RASG12V mutation; 1, 5 and 10 µM; 24 hours; serum-free
Description: Analysis of the impact of the tested compound on the signal transduction pathway controlled by RAS family proteins in cancer cell lines expressing KRASG12V based on the Western Blot method.
The example illustrates the impact of the PER154A and PER160A molecules on the signal transduction pathway in the cancer cell line SW480.
• 1. SW480 cell line at 80-90% confluence was rinsed with PBS without Mg2+ and Ca2+ ions. Remove PBS. • 2. Cells were detached from the vessel using Trypsin-EDTA (0.05%, 1x) for 1-3 minutes at 37°C. • 3. Cells were transferred to a 15 ml tube, centrifuged (200xg, 4 min) and suspended in DMEM High Glucose (HG) medium with 10% bovine serum and antibiotics. • 4. Cells were counted. • 5. 5x10^5 cells were added to each well of a 6-well plate for adherent culture. • 6. The above medium was replenished and left for approximately 24 hours.
• 7. Cells were washed 2-3 times with buffered saline solution without Mg2+ and Ca2+ ions. PBS was carefully removed each time. • 8. 2 ml of DMEM HG medium with antibiotics and without serum was added, left for approximately 24 hours.
• 9. The cells were washed 2-3 times with buffered saline without Mg2+ and Ca2+ ions. PBS was carefully removed each time. • 10. […]

BALB/c mice = test: Acute toxicity after oral administration (Acute Toxicity test TG425); type: in vivo; settings: female BALB/c mice, oral by gastric probe, 40 mg of substance in corn oil, three mice, observed two weeks
Description: The study was planned according to Acute Toxicity Test 425 (oral administration) - higher-lower-dose procedure, in accordance with the OECD regulation of October 3, 2008. The test procedure described in these guidelines is useful in minimizing the number of animals needed to estimate the acute toxicity after oral administration of potential drugs. In addition to the LD50 assessment and confidence intervals, the test allows for the observation of signs of toxicity. For this purpose, an experiment was agreed upon with the Local Ethics Committee for Animal Experimentation, using BALB/c mice. The TG425 method allows for the estimation of LD50 values with confidence intervals, and the results allow for the classification of substances according to the global harmonized system for the classification of chemicals that cause acute toxicity.
A sequential test, utilizing a maximum of 5 animals, was applied, which is known as the limit test. A test dose of either 2000 or uniquely 5000 mg/kg can be used. The testing procedures at 2000 and 5000 mg/kg differ slightly (see Sections 23-25 for the limit test at 2000 mg/kg and Sections 26-30 for the limit test at 5000 mg/kg). The selection of a sequential testing plan increases the statistical power, and a deliberate deviation from the limit test rejection procedure was made for compounds with an LD50 near the limit dose; i.e. committing an error on the side of caution. As with any limit test protocol, the probability of correct compound classification will decrease, as the actual LD50 value more closely resembles the limit dose.
• 1. Female Balb/c mice, which were 50-56 days postpartum, were used for the purposes of this experiment. • 2. Mice underwent a 1-week quarantine after being transported to the laboratory. • 3. The studied molecules (PER154A, PER160A, PER170A, PER176A) were suspended according to the TG425 protocol, i.e. 40 mg of substance in […] of laboratory corn oil and orally administered through a plastic gastro probe (used: 20ga (0.9 mm OD x 0.5 mm ID), 38 mm), which was suitable for the size of the animal (17-21 g). The mice were observed and weighed almost daily. • 4. Mouse housing conditions: up to 4 mice per cage; temperature: 23.2 - 23.40°C; humidity: 27.6 - 40.9% relative humidity. • 5. Two weeks later (time counted separately for each mouse), a resection was performed to analyze internal organs for any abnormalities.

SMILES	toxicity against cancer cells expressing normal RAS protein (NCI-H1975)	impact on downstream signal transduction pathways in relation to RASG12V (AKT, ERK phosphorylation) (SW480 cell line)	safety in acute oral toxicity test (BALB/c mice)
O=C(Nc1ccc2c(c1)OCCO2)c1ccc2c(c1)C1C3CCC(C3)C1C(c1ccccc1)N2 (stereo not drawn) [PER154A]	no toxicity	Significant impact; also recorded: blocks	safe and safe for mice
O=C(Nc1ccc(F)cc1)c1ccc2c(c1)C1C3CCC(C3)C1C(c1ccccc1)N2 (stereo not drawn) [PER160A]	no toxicity	Significant impact; also recorded: blocks	safe for mice
